Test: Human HepG2 cell viability assay in 384 well format
Format: toxicity, cell-based
Set-up: dose 125 nL, time 70.5 hour; concentration not given beside the values
Conditions: HepG2 cells, read-out: Inhibition

Structure (SMILES) | cytotoxicity at 70.5 h [%]
CC(C)c1cc(N[C@@H](CO)C(N)=O)n2nccc2n1 | 31.2
CC(NC(=O)c1ccc(=O)n(C)c1)c1ccccc1-n1cccn1 (configuration not stated) | -19.9
CCNC(=O)C1CCN(c2cc(-c3ccccc3F)nc3ccnn23)C1 (configuration not stated) | 14.5
Cc1ccc(OC2(C(=O)O)CCN(C/C=C/c3ccco3)CC2)cn1 | -5.05
Cc1oc(-c2ccoc2)nc1CN1CCC[C@H]1CO | -3.95
O=C(C1CNCCO1)N1CCC(c2cc(N3CCCC3)ncn2)CC1 (configuration not stated) | 14.8
CC(C)Cc1nc(CN2CCc3onc(-c4cccc(F)c4)c3C2)no1 | -2.69
CC(C)[C@@H]1CN(CCOc2ccc(Cl)cc2)C[C@H]1NS(C)(=O)=O | -3.97
O=C(c1scc2c1OCCO2)N1CCN(Cc2cccc(F)c2)CC1 | 20.1
CN1CCN(Cc2ccccc2Cl)CC12CCC(=O)N(CC1CC1)CC2 (configuration not stated) | 0.313
CCc1nc(CN(C)C(=O)c2cc(CN(CC)CC)c(CC)o2)no1 | -11.7
c1ccc(-c2ncc(CN3CCC4(CCNCC4)C3)cn2)cc1 | -7.74
c1ccc(CNc2ncc(CN3CC[C@H]4CC[C@@H](C3)N4)cn2)cc1 | 18.2
CCn1ncc(CN2CCCC(C(=O)c3ccc(Cl)cc3)C2)c1C (configuration not stated) | -6.46
NC(=O)CN1CC2(CCC1=O)CCN(Cc1ccccc1F)CC2 | -5.65
CN(Cc1noc2c1CCCC2)C(=O)Nc1ccc2oc(=O)n(C)c2c1 | 20.6
CSCCCNc1ncnc2cccc(F)c12 | 23.2
CC(=O)c1cccc(OCc2cc(C(=O)N3CCCCO3)n[nH]2)c1 | -15.4
COc1cccc2c1OCCCN(Cc1ccc(C(N)=O)c(=O)[nH]1)C2 | -8.27
CCN(CC)CCn1cnc(-c2ccccc2)c1-c1ncc[nH]1 | -10.3
Cc1cc(=O)c2ccccc2n1CC1CCCN(C)C1 (configuration not stated) | 31.9
CCc1nc(C)c(CN2CCOC(Cc3ccccc3Cl)C2)[nH]1 (configuration not stated) | -6.82
CC(C)(C)c1ncc2c(n1)CN(C(=O)c1ccc(-n3cnnn3)cc1)C2 | -3.62

Structure (SMILES) | cytotoxicity at 70.5 h [%]
CCc1ccc2nc(-c3cnn(C)c3)cc(C(=O)N3CCCC3)c2c1 | -5.34
CCc1ocnc1C(=O)N1CCN(c2ccc3ccccc3c2)CC1 | 4.76
Cc1nc(N(C)C)ncc1C(=O)N[C@@H]1CCc2ccccc21 | -11.5
Cc1nnc(NC(=O)N2CCCCC2CCO)s1 (configuration not stated) | -0.98
CCCn1cnnc1CN(C)C(=O)CCC(=O)Nc1cc(C)ccc1F | -6.48
CSCCC(=O)N1CCC(c2nccn2CCN(C)C)CC1 | -2.46
COCc1nc(CN2C(=O)OC[C@@H]2C(C)C)no1 | -6.26
CCOc1ccccc1CN(CC)Cc1ccc(S(C)(=O)=O)cc1 | -5.03
CN1CCCC(CCC(=O)N2CCc3onc(C(=O)N(C)C)c3C2)C1 (configuration not stated) | -1.71
CCC(CO)N(Cc1ccsc1)Cc1ccc(-c2ccn[nH]2)s1 (configuration not stated) | -5.61
CCn1ccnc1CNc1nccc(-c2cn(C)nc2C)n1 | -2.79
COc1ccc(OC2CCN(c3ccncc3)CC2)cc1 | -3.12
CC(C)=CCCC1(C)CCC(=O)N(CCc2csc(N)n2)C1 (configuration not stated) | -5.28
COC(=O)c1ccc(NC(=O)CNCc2ccco2)cc1 | -5.33
Cc1noc(-c2ccc(N3CCCC(C(=O)c4nccn4C)C3)nc2)n1 (configuration not stated) | -8.49
CN(Cc1ccsc1)C(=O)c1n[nH]c(N)c1-c1ccccc1 | -1.37
COc1ccc2c(c1)C(C(=O)N(C)CCCc1cnn(C)c1)CC(=O)N2 (configuration not stated) | -12.9
CC(C)CC(=O)N1CCCCC(NC(=O)CCc2cccnc2)C1 (configuration not stated) | -1.04
Cc1cc(C)n(CC(C)Nc2nc(C)nc3c2CCNC3)n1 (configuration not stated) | -8.55
Cc1cnc(N2CCCC3(CCOCC3)C2)nc1 | -1.55
CN(C)c1ccc(C(=O)N2Cc3cnc(C(C)(C)C)nc3C2)cc1 | -2.91
CC(C)c1noc(CN(C)C(=O)C2COc3ccccc3C2)n1 (configuration not stated) | -7.56
CC(c1ccon1)N(C)Cc1cc(O)c2cc(F)ccc2n1 (configuration not stated) | -10.6

Structure (SMILES) | cytotoxicity at 70.5 h [%]
CC(C)[C@H]1CN(S(=O)(=O)c2cccnc2)C[C@@H]1N | 0.829
COc1cccc(OCCN2CC[C@@](O)(C3CCOCC3)[C@H](C)C2)c1 | 1.27
CCc1ccccc1OCCN(C)C(=O)CCN1CCCO1 | -3.75
OCCC1CN(c2ncnc3[nH]cnc23)CCN1Cc1cccs1 (configuration not stated) | -3.01
Cc1cccc(CN2C[C@H]3CC[C@@H]2CN(Cc2[nH]cnc2C)C3)n1 | -5.25
CCc1cn[nH]c1C1CCN(c2cc(C)c3cc(OC)ccc3n2)CC1 | 1.76
COCCN1CCC(CNc2nccc(-c3cnn(C)c3)n2)CC1 | -3.27
Fc1ccc(Cn2ncc3c2CN(c2ncccn2)C3)cc1 | -0.987
Cc1cc2cccc(NC(=O)N3CCC(N4CCSCC4)CC3)c2o1 | -11
CC(C)OC(=O)N1CCCC(c2nccn2Cc2ccncc2)C1 (configuration not stated) | -8
O=C1CCC2(CCCN(C(=O)c3ccc[nH]3)C2)CN1Cc1cccnc1 (configuration not stated) | -3.97
COc1nc2ccn(CCc3cc(O)nc(C)n3)c(=O)c2cc1C#N | -7.61
CN(C)C(=O)CN1CC=C(c2cnn(Cc3ccccc3)c2)CC1 | -15.3
O=C(O)c1ccnc(-c2ccnc(NCCc3ccc(F)cc3)n2)c1 | -5.83
COc1nc2c(cc1C(=O)NCCc1nc3ccccc3s1)CCC2 | -6.58
CN(C)c1nccnc1N1CC[C@@]2(O)CCNC[C@H]2C1 | 9.65
Cc1ccc(-c2nc(CC3CCN(C)CC3)no2)cc1N1CCNC1=O | -7.33
CC(C)Cc1cc(CNC(=O)c2ccccc2C2CCNC2)no1 (configuration not stated) | -17.5
O=C(O)C1(Oc2ccc(Cl)cc2)CCN(C2CCOCC2)CC1 | -17.1
Cc1cc(CC(C)NC(=O)c2cccc(CC3CCNCC3)c2)[nH]n1 (configuration not stated) | -2.93
CC(C)=CCN1C(=O)[C@H]2CC[C@@H]1CN(C(=O)CCc1nc(Cl)n[nH]1)C2 | -14.8
COc1ccccc1N1CCN(C(=O)CCn2ccc(C)n2)CC1(C)C | -5.62
Cc1ccc(C(=O)N2CCC3(CCC(=O)N(CCN(C)C)C3)CC2)nc1 | -3.11

Structure (SMILES) | cytotoxicity at 70.5 h [%]
CCOc1ccc(C(=O)CCC(=O)NCc2csc(N)n2)cc1C | -11.5
CC/C=C(\C)CN1CCC(CNC(=O)c2c[nH]c(=O)c(Cl)c2)C1 (configuration not stated) | 12.8
CN(Cc1ccccn1)C(C(=O)O)c1ccc2c(c1)OCO2 (configuration not stated) | -2.22
CN(Cc1cn(C2CCNCC2)nn1)CC1CCCO1 (configuration not stated) | -9.31
CC(C)c1nccn1CCCNC(=O)c1ccc(-c2ccncc2)nc1 | 17.9
CCCN(CCc1ccccc1)C(=O)c1ccccc1NCC(=O)O | -7.74
CCc1cc(CN(C)C(=O)CN2CC3(CCNCC3)OC2=O)on1 | -2.42
COC[C@]1(O)CCN(C(=O)c2cccc(CN(C)C)c2)CC1(C)C | -5.34
O[C@H]1[C@H](NCCc2ccccn2)c2ccccc2C12CCNCC2 | 20.6
CC(=O)N1CCc2[nH]cnc2C12CCN(C(=O)CCn1cccn1)CC2 | 1.39
COc1ccc(C(=O)N2CCOCC(CO)C2)cc1N1CCOCC1 (configuration not stated) | -3.09
CC(C)c1nccc(CN2CCC(O)(CN3CCCCC3)C2)n1 (configuration not stated) | -4.46
O=C(CN1CCN(c2ncccn2)[C@@H]2CS(=O)(=O)C[C@@H]21)N1CCCCC1 | -1.85
Cc1nc(CCN2CCC(Oc3ccccc3F)CC2)c(C)s1 | 8.34
CCc1cnc(NCCSc2cnn[nH]2)nc1 | 28.2
Cc1cc(C(=O)N2C[C@@H](CN3CCCCC3)[C@@H](CO)C2)ccc1O | -5.69
CC(C(=O)O)N1CCc2onc(-c3ccc(F)c(F)c3)c2C1 (configuration not stated) | -6.87
CNC(=O)c1cn2cc(-c3ccccc3Cl)n(CC=C(C)C)c(=O)c2n1 | 35.1
CCC1CN(C(=O)c2cccnc2O)CCC(=O)N1Cc1ccccc1 (configuration not stated) | -3.15
COc1ccccc1-c1noc(CCC(=O)NC(C)Cn2cccn2)n1 (configuration not stated) | -3.38
CCNc1ncc(C(=O)N(C)C(C)c2ccc3c(c2)OCCO3)cn1 (configuration not stated) | -2.94
CNC(=O)c1noc(CN2CC[C@](C)(O)[C@H](C)C2)n1 | -8.07
Cc1cccc(=O)n1CCC(=O)N1CCC2(CC1)OCCCC2O (configuration not stated) | -3.41

Structure (SMILES) | cytotoxicity at 70.5 h [%]
CCc1csc(CNC2CCN(Cc3ccccc3)C2)n1 (configuration not stated) | -8.44
CCNC(=O)[C@@H]1C[C@@H](N)CN1C(=O)C1(c2ccc(OC)cc2)CCCC1 | -9.96
CCN1CCN(C(C)(C)CNc2nc(C)cc(C3CCC3)n2)CC1 | -5.33
CCCc1ncc(CN(CCOC)Cc2cccs2)cn1 | -1.12
COc1cccn(CC(=O)N2CCCC3(CCCCC3)C2)c1=O | -4.6
O=C(O)c1nn(CC2CC2)c2c1CN(S(=O)(=O)c1cccnc1)CC2 | -11
Cc1cc(C)c2c(NC(C)c3nncn3C3CCCC3)ncnc2n1 (configuration not stated) | -4.92
CN(C)[C@H]1CN(C(=O)CCc2cccc(F)c2)C[C@@H]1C1CC1 | -5.67
Cc1n[nH]c(CN2CCN(c3ncnc4scc(C)c34)CC2)c1Cl | -8.15
CCn1cc(-c2n[nH]c(=O)n2-c2ccc(OC)c(OC)c2)c(C)n1 | -4.02
Cn1c(CN2CCCCC2)nnc1C1CCN(c2nccc(N)n2)CC1 | -7.78
COc1cc(N(C)Cc2cc(C(C)(C)C)n[nH]2)ncn1 | 17.2
O=C(CC1=CSC2=NCCCN12)N1CCCCC1c1cccc(F)c1 (configuration not stated) | 20.1
CN1C(=O)CC(C(=O)O)C12CCN(Cc1ccc(Cl)c(Cl)c1)CC2 (configuration not stated) | -7.82
COc1ccc(OC2CCN(C(=O)C(C)Cn3cccn3)CC2)cc1 (configuration not stated) | -2.17
CN1CCc2nc(N(C)C)nc(N3CCC(O)CC3)c2C1 | -9.46
COc1cccn(CC(=O)N2CCCC3(CCCO3)CC2)c1=O (configuration not stated) | -7.92
Cc1ccccc1S(=O)(=O)N1CCc2c(ncnc2N(C)C)C1 | 0.46
Cc1cccn2c(CNC(C)CO)cnc12 (configuration not stated) | 40.8
C=C(C)COc1ccccc1C(=O)N(C)C(C)c1c(C)n[nH]c1C (configuration not stated) | -2.31
